Reference: patent US9066922B2, “Pharmaceutical composition for the treatment or prevention of diseases involving obesity, diabetes, metabolic syndrome, neuro-degenerative diseases and mitochondria dysfunction diseases” (MD BIOALPHA CO., LTD., priority 2005, dated 2015)

Experiments:
[1] = system: leptin receptor-deficient (ob/ob) mice; assay: Changes in leptin receptor-deficient (ob/ob) mice by administration of β-lapachone; type: in vivo
Experimental: (§1) This is because fat degradation is facilitated and therefore sufficient amounts of energy are generated, despite similar dietary intake. […] In order to examine fat accumulation in the liver tissue, animals were laparotomized 56 days after administration of β-lapachone, and H&E staining (FIG. 21C) and EM examination (FIG. 21D) were performed on the liver tissue.

[2] = system: leptin-deficient (ob/ob) mice; assay: as above; type: in vivo; conditions: 56 days, vs control group
Experimental: as §1

[3] = system: AMPK; assay: Activation of AMPK in liver and gonadal adipose tissues of C57BL/6 mice; type: in vivo; conditions: 5 mg/kg via tail veins, 2 hours and 4 hours
Experimental: A vehicle and 5 mg/kg of β-lapachone were administered via tail veins to C57BL/6 mice for 2 hours and 4 hours, respectively. Liver and gonadal adipose tissues were removed and activity of AMPK kinase was assayed. A degree of activation was expressed as a CPM value of radioisotopes. Using the same manner, HepG2 cells, a cell line derived from human liver, were treated with 10 μM β-lapachone for 30 min, and then an assay for AMPK kinase activity was carried out.

[4] = system: C57BL/6JL Lep ob/Lep ob mice; assay: Blood lipid, glucose and enzyme levels in obese mice (ob/ob); type: in vivo; parameters: unit not given here; conditions: 100 mg/kg for 26 days
Excerpt: (§2) 10-week-old C57BL/6JL Lep ob/Lep ob male mice having obesity characteristics and predisposition were purchased from Daehan Biolink Co., Ltd. (Chungchongbuk-do, Korea). Animals were raised in a breeding room maintained at a temperature of 23 C, 55% humidity, illumination of 300 to 500 lux, a 12-h light/dark (L/D) cycle, and ventilation of 10 to 18 times/hr. Animals were fed ad libitum pellets of Purina Rodent Laboratory Chow 5001 (purchased from Purina Mills Inc., St. Louis, Mo., USA) as a solid feed for experimental animals and tap water as drinking water. Mice were allowed to acclimate to new environment of the breeding room for two weeks and were then administered some pyrano-o-naphthoquinone and furano-o-naphthoquinone derivatives synthesized according to the present invention at doses of 100 mg/kg for 26 days. Observation was made on changes in body weight, blood glucose and dietary intake, with respect to a time course of administration. After administration was complete, Computed Tomography (CT) was performed to confirm changes in adipose tissue distribution of animals, changes in fat distribution of tissues in various organs, changes in sizes of adipocytes, and changes in glucose, lipid and enzyme levels in blood and liver.

[5] = system: mRNAs of ACC1, ACC2, FAS, LPL, SCD1; assay: Expression of genes involved in lipid metabolism in DIO mice (real-time quantitative PCR); type: in vivo, C57BL/6 mice; conditions: 50 mg/kg daily oral, vs control group
Experimental: In order to investigate anti-obesity effects of β-lapachone, β-lapachone was administered daily to diet-induced obesity (DIO) mice at a dose of 50 mg/kg via an oral route, and an attempt was made to confirm levels of mRNAs of acetyl CoA carboxylase (ACC) 1 (7,8), ACC2 (9), fatty acid synthase (FAS) (10,11), lipoprotein lipase (LPL) (12-15), and stearoyl-CoA desaturase 1 (SCD1) (16,17), which participate in lipid metabolism in the liver and gonadal adipose tissues, by real-time quantitative PCR. These enzymes are very important for lipid metabolism; it is known that ACC catalyzes formation of malonyl CoA from acetyl CoA, FAS catalyzes formation of palmitate from malonyl CoA, and SCD1 catalyzes formation of monounsaturated fat, thus playing a critical role in formation of triacylglycerol, a major energy store. As such, these enzymes are closely correlated with obesity, diabetes, and lipid metabolism-related diseases. […] Therefore, from the results of such increased or decreased expression of genes for the above-mentioned enzymes, it can be inferred that β-lapachone will be therapeutically effective substance for the treatment of metabolic syndromes.

[6] = system: DIO C57BL/6 mice; assay: Spontaneous locomotor activity in DIO C57BL/6 mice; type: in vivo; conditions: 3 hours after administration, measured for 7 hours, vs vehicle and control groups
Experimental: β-lapachone was administered to DIO C57BL/6 mice, and 3 hours later, spontaneous locomotor activity was measured using Versa MAX Activity Monitors & Analyzer (AccuSan Instruments, Columbus, Ohio). The monitor used to measure motion of animals was a 41 cm×41 cm Plexiglas chamber (height: 30 cm) equipped with infrared rays at intervals of 2.5 cm along the x- and y-axes, respectively, whereby 16 scanning lines are respectively arranged on front/rear and right/left sides of the chamber. In order to distinguish between spontaneous locomotor and stereotypic/grooming behavior, animal activity was measured by taking continuous interference of two different scanning lines caused by mice as an effective determination standard. A β-lapachone-administered group, a vehicle-administered group and a control group were respectively placed in each measuring apparatus, and activity and motion of animals were measured for 7 hours. For acclimation of animal to new environment, mice were placed in the apparatus 2 hours prior to measurement.

[7] = system: transcripts of Sirtuin (SIRT) genes; assay: Expression of SIRT-related transcripts in DIO mice; type: in vivo, C57BL/6 mice; conditions: 50 mg/kg daily oral, gonadal adipose tissues, days 7, 28 and 56
Experimental: β-lapachone was administered daily to diet-induced obesity (DIO) mice at a dose of 50 mg/kg via an oral route, and levels of transcripts of Sirtuin (SIRT) (36,37) genes in gonadal adipose tissues were measured on days 7, 28 and 56 of administration, respectively, using real-time quantitative PCR. Referring to SIRT-related transcripts shown in FIG. 12, there are known 7 species of transcripts in humans.

[8] = system: C57BL/6JL Lep ob/Lep ob mice; assay: Weight loss effects in obese mice (ob/ob): body weight; type: in vivo; conditions: 100 mg/kg for 26 days
Excerpt: as §2

[9] = system: AMPK and ACC; assay: Phosphorylation of AMPK & ACC in DIO C57BL/6 mice (Western blot); type: in vivo; conditions: 50 mg/kg daily oral
Experimental: In order to investigate anti-obesity effects of β-lapachone, β-lapachone was administered daily to diet-induced obesity (DIO) mice at a dose of 50 mg/kg via an oral route, and effects of β-lapachone on phosphorylation of AMPK and ACC, which play an important role in energy metabolism and lipogenesis in the liver and gonadal adipose tissues, were examined. […] Phosphorylated AMPK is believed to activate metabolism associated with energy. Whereas, it is believed that ACC, which is affected by activation of AMPK, is phosphorylated and lipogenic activity thereof is then inhibited, which will then exert some effects on lipid metabolism including inhibition of obesity.

[10] = liver and gonadal adipose tissues

CC1(C)CCC2=C(O1)c1ccccc1C(=O)C2=O [Compound 1, β-Lapachone]
dietary intake/body weight ([1]; 150 or 200 mg/kg daily oral, 56 days): notably decreased around at 10 days of administration | body weight ([1]; 150 or 200 mg/kg daily oral, 56 days, vs control group): continuous weight loss for 56 days | H&E staining on liver tissue: fat vacuoles ([1]; 56 days after administration, vs control group): almost all fat vacuoles have disappeared | EM examination on liver tissues: mitochondrial numbers ([1]; 56 days, vs control group): significant increases in mitochondrial numbers | EM examination on muscle tissue of limbs: mitochondrial shape ([1]; 56 days, vs control group): recovery of normal mitochondrial shape | EM examination on muscle tissue of limbs: numbers of mitochondria ([1]; 56 days, vs control group): significant increases in numbers of mitochondrial | EM examination on liver tissues: fat vacuoles and glycogen stores [2]: remarkably decreased fat vacuoles and glycogen stores | AMPK activity in the liver and gonadal adipose tissues [3]: increased AMPK activity | Cholesterol [4]: 121 | GOT [4]: 42 | GPT [4]: 39 | Glucose [4]: 120 | Triglyceride [4]: 143 | expression level of mRNA of ACC1 [5, 10]: remarkably decreased | expression level of mRNA of ACC2 [5, 10]: remarkably decreased | expression level of mRNA of FAS [5, 10]: remarkably decreased | expression level of mRNA of LPL (listed among decreased) [5, 10]: remarkably decreased | expression level of mRNA of SCD1 [5, 10]: remarkably decreased | LPL mRNA levels, increase [5]: 2 fold | spontaneous locomotor activity [6]: significant difference in motion and locomotor activity | SIRT2 transcript level [7]: did not exhibit any noticeable difference | SIRT3 transcript level [7]: significantly increased | SIRT5 transcript level [7]: did not exhibit any noticeable difference | SIRT6 transcript level [7]: significantly increased | SIRT7 transcript level [7]: did not exhibit any noticeable difference | SITR1 transcript level [7]: significantly increased | Final BW [8]: 46.5 g | change in vivo at 100 mg/kg ([8]; Mus musculus, 624 h, read-out: Increase in BW): -16.8% | phosphorylation of AMPK and ACC in the gonadal and liver tissues [9]: has an effect on phosphorylation of AMPK and ACC
